Test in all cases: NCI tumour cell line growth inhibition, 48 h
In assay [1] the test system is CCRF-CEM.
In assay [2] the test system is HOP-62.
Assay [3] has as its system HOP-92.
Assay [4] relates to KM12.
The subject of assay [5] is LOX IMVI.
Assay [6] relates to M19-MEL.
In assay [7] the test system is MOLT-4.
In assay [8] the test system is Malme-3M.
The subject of assay [9] is NCI-H226.
Assay [10] concerns NCI-H23.
The subject of assay [11] is NCI-H522.
Assay [12] relates to OVCAR-4.
Assay [13] has as its system OVCAR-5.
The test system of assay [14] is OVCAR-8.
Assay [15] deals with RXF 393.
Assay [16] has as its system SF-539.
The test system of assay [17] is SK-MEL-28.
The test system of assay [18] is SNB-75.
For assay [19], the system named is SW-620.
The test system of assay [20] is U-251.

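In this assay, cells in 96-well plates receive the compound at five concentrations for 48 hours. Endpoints are linearly interpolated between the surrounding concentrations. GI50 is the concentration that inhibits growth by half.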 Activity calls are given as the source filed them. No stated cut-off is given here; in the data, active = GI50 up to about 1.1 µM and inactive = higher.

Consider `CCOC(=O)CNC(=O)N(CC)C12CC3CC(CC(C3)C1)C2`, for which the GI50 in assay [1] is 135 µM (inactive); in assay [2], 128 µM (inactive); in [3], 60.1 µM (inactive); in [4] it was 125 µM (inactive); in assay [5] it was 115 µM (inactive); in assay [6], 153 µM (inactive). Further, the GI50 in assay [7] was 119 µM (inactive); in assay [8], 133 µM (inactive); in assay [9], 146 µM (inactive); in assay [10], 159 µM (inactive); in [11] it was 123 µM (inactive); in assay [12], 188 µM (inactive). For the same molecule, the GI50 was 161 µM (inactive) in assay [13]; 150 µM (inactive) in assay [14]; 152 µM (inactive) in assay [15]; 123 µM (inactive) in assay [16]; 206 µM (inactive) in assay [17]; 131 µM (inactive) in assay [18]. Also, the GI50 is 145 µM (inactive) in [19] and 119 µM (inactive) in assay [20].
Turning to `NC(=S)N/N=C/c1ccc(OC(=O)COc2ccccc2Cl)cn1`, the GI50 in [1] was 6.1 µM (inactive); in [2] it was 20.5 µM (inactive); in assay [3], 12.9 µM (inactive); in assay [4], 75.7 µM (inactive); in assay [5], 27.6 µM (inactive); in assay [6], 25.9 µM (inactive). For the same molecule, the GI50 in assay [7] was 16.3 µM (inactive); in [8], 24.4 µM (inactive); in assay [9] it was 26.5 µM (inactive); in assay [10], 12.9 µM (inactive); in assay [11] it was 18.1 µM (inactive); in assay [12], 32.4 µM (inactive). For the same molecule, the GI50 in [13] is 44.4 µM (inactive); in [14], 15.7 µM (inactive); in assay [15] it was > 37.5 µM (inactive); in assay [16], 14.3 µM (inactive); in assay [17], 65 µM (inactive); in [18], > 54.6 µM (inactive). In addition, the GI50 was 31 µM (inactive) in [19] and 25.1 µM (inactive) in assay [20].
On to `C=CC(OCC)(OCC)OCC`, for which the GI50 in assay [1] is > 100 µM (inactive); in assay [2], > 100 µM (inactive); in assay [3], > 100 µM (inactive); in [4] it was > 100 µM (inactive); in assay [5], 66.2 µM (inactive); in [6] it was > 100 µM (inactive). Also, the GI50 in [7], in assay [8], in [9], in [10], in [11] and in assay [12] was > 100 µM (inactive) throughout. Moreover, the GI50 in assay [13], in assay [14], in [15], in assay [16], in assay [17] and in assay [18] was > 100 µM (inactive) each time. Also, the GI50 in assay [20] was > 100 µM (inactive).
As for `CC1CC2C3CC(F)C4=CC(=O)C=CC4(C)C3(F)C(O)CC2(C)C1(O)C(=O)COC(=O)C(C)(C)C` (stereo not drawn), the GI50 was 0.0203 µM (active) in [1]; 75.7 µM (inactive) in assay [2]; > 100 µM (inactive) in assay [3]; > 100 µM (inactive) in assay [4]; > 100 µM (inactive) in assay [5]; > 100 µM (inactive) in assay [6]. Besides, the GI50 is 66.2 µM (inactive) in [7]; > 100 µM (inactive) in assay [8]; > 100 µM (inactive) in assay [9]; > 100 µM (inactive) in assay [10]; 71 µM (inactive) in assay [11]; 27.4 µM (inactive) in assay [12]. For the same molecule, the GI50 in assay [13] is > 100 µM (inactive); in assay [15], 18.7 µM (inactive); in assay [16], 87.5 µM (inactive); in assay [17] it was 37.2 µM (inactive); in [18], 82.2 µM (inactive); in assay [19], > 100 µM (inactive). The GI50 in assay [20] is > 100 µM (inactive).
As to `CC(=O)N/C(=C\c1ccc(/C=C(\NC(C)=O)C2=NC3C(=O)c4ccccc4C(=O)C3N2)cc1)C1=NC2C(=O)c3ccccc3C(=O)C2N1` (stereo not drawn), the GI50 in assay [1] was 0.865 µM (active); in [3], 30.8 µM (inactive); in assay [4] it was 3.63 µM (inactive); in assay [5], 6.92 µM (inactive); in [6], 92.3 µM (inactive); in assay [7], 2.44 µM (inactive). The GI50 in assay [9] was 15.4 µM (inactive); in [10], 26.7 µM (inactive); in [11] it was 7.69 µM (inactive); in assay [12] it was > 100 µM (inactive); in [13] it was 75 µM (inactive); in assay [14], 22.4 µM (inactive). Further, the GI50 was 13.2 µM (inactive) in assay [15]; 76.7 µM (inactive) in assay [16]; > 100 µM (inactive) in assay [17]; 6.98 µM (inactive) in assay [18]; 1.84 µM (inactive) in assay [19]; 9.98 µM (inactive) in assay [20].
On to `O=C(/C=C/c1ccc(Cl)c(Cl)c1)C1CCC(Cl)CC1` (stereo not drawn), for which the GI50 in assay [2] is 57.3 µM (inactive); in assay [3], 36.7 µM (inactive); in [4] it was 19.2 µM (inactive); in assay [5], 16.1 µM (inactive); in assay [6], 17.3 µM (inactive); in [8] it was 18.5 µM (inactive). Further, the GI50 in assay [9] was 31.2 µM (inactive); in assay [10] it was 17.9 µM (inactive); in assay [11], 16.7 µM (inactive); in assay [12], 17 µM (inactive); in assay [13], 17.4 µM (inactive); in assay [14] it was 18.8 µM (inactive). The GI50 was 17.9 µM (inactive) in [15]; 18.4 µM (inactive) in assay [16]; 17.5 µM (inactive) in assay [17]; 19.8 µM (inactive) in [18]; 16.9 µM (inactive) in assay [19]; 15.1 µM (inactive) in [20].
With `CCC1C[N+]23CCc4c([nH]c5ccccc45)C2CC1CC3` (stereo not drawn), the GI50 in assay [1] is 51.2 µM (inactive); in assay [2], > 100 µM (inactive); in assay [3], 82.6 µM (inactive); in assay [4] it was 64.7 µM (inactive); in assay [5], 68.1 µM (inactive); in assay [6], 52.5 µM (inactive). For the same molecule, the GI50 in assay [7] is 29.8 µM (inactive); in [8], 33.7 µM (inactive); in [9], 45.9 µM (inactive); in assay [10], 69.2 µM (inactive); in assay [11] it was 55.1 µM (inactive); in [12] it was 81.5 µM (inactive). Moreover, the GI50 is > 100 µM (inactive) in assay [13]; 81.3 µM (inactive) in assay [14]; > 100 µM (inactive) in [15]; > 100 µM (inactive) in [17]; 98.9 µM (inactive) in [18]; > 100 µM (inactive) in assay [19]. In assay [20], the GI50 was 98.6 µM (inactive).
In the case of `COC(=O)C1=CC[C@@H]2C(C(=O)O)=CO[C@@H](OC3OC(CO)C(O)C(O)C3O)[C@H]12` (stereo partly drawn), the GI50 in assay [1] is > 119 µM (inactive); in assay [2], > 300 µM (inactive); in assay [3] it was > 110 µM (inactive); in assay [4], > 300 µM (inactive); in assay [5] it was > 300 µM (inactive); in assay [6], > 300 µM (inactive). Also, the GI50 in assay [7] is > 300 µM (inactive); in assay [8] it was > 263 µM (inactive); in [9], 299 µM (inactive); in assay [10] it was > 300 µM (inactive); in assay [11], > 300 µM (inactive); in [12], > 300 µM (inactive). In addition, the GI50 in assay [13], in assay [14], in [15], in assay [16], in assay [17] and in assay [18] was > 300 µM (inactive) in each case. Moreover, the GI50 in [19] and in assay [20] was > 300 µM (inactive) in each case.
`Cc1cc(NS(=O)(=O)c2ccc(Nc3c4ccccc4nc4c(C(=O)N5CCN(CCO)CC5)ccc(Cl)c34)cc2)no1`: the GI50 is 28.8 µM (inactive) in assay [1]; > 100 µM (inactive) in [2]; > 100 µM (inactive) in [3]; > 100 µM (inactive) in assay [4]; > 100 µM (inactive) in assay [6]; 36.3 µM (inactive) in [7]. Besides, the GI50 in assay [8], in [9], in [10], in [12], in assay [13] and in assay [14] was > 100 µM (inactive) in each case. The GI50 in assay [15] is > 100 µM (inactive); in assay [16], > 100 µM (inactive); in [17] it was > 100 µM (inactive); in [18], 29.6 µM (inactive); in [20] it was > 100 µM (inactive).
With `COc1cc(OC)c(SSCCCCS(=O)O)c(OC)c1`, the GI50 in assay [1] was 5.45 µM (inactive); in assay [2], 26.2 µM (inactive); in [4], 14.9 µM (inactive); in assay [5], 10.7 µM (inactive); in assay [6], 7.52 µM (inactive); in assay [7], 6.78 µM (inactive). Moreover, the GI50 in [8] was 12.2 µM (inactive); in assay [10] it was 15.4 µM (inactive); in assay [11], 6.65 µM (inactive); in assay [12], 14.3 µM (inactive); in assay [13] it was 16.6 µM (inactive); in assay [14] it was 16 µM (inactive). Moreover, the GI50 is 14.5 µM (inactive) in assay [15]; 16.1 µM (inactive) in [16]; 15 µM (inactive) in assay [17]; 10.6 µM (inactive) in assay [18]; 13.9 µM (inactive) in [19]; 14.5 µM (inactive) in [20].
